# Experimental data as given in patent US20250250292A1, “DELIVERY SYSTEM TO TARGET GRAM-NEGATIVE BACTERIA” (priority 2022, published 2025).
# Where two headings read alike, the source gives them in different places.
# What was measured:
# Type in all cases: cell-based
# [1] = test system: Escherichia coli (BL21(DE3)); experiment: Resazurin blue (alamarBlue) bacterial cell viability assay, gram-negative model; settings: for cytotoxic effect: E. coli BL21 (DE3)
# Experimental: (§1) To compare the efficacy of pleuromutilin and the pleuromulin-TPP^+ ester pro-drug (AP-8-159B) gram-negative and gram-positive pathogen model system were used. Thus, Escherichia coli (BL21(DE3) from New England Biolabs) was used as a model strain for gram-negative bacteria and clinical isolates of Staphylococcus aureus were used as the model system for gram-positive bacteria (NR-49120, NR-46413 obtained from BEI Resources). All strains were cultured at 37° C. overnight in Luria Bertani (LB) (BD 244610). For testing the drug sensitivity, bacteria were grown in RPMI medium containing 10% fetal bovine serum or human serum.
# A resazurin blue assay (alamarBlue®) (Toté et al., 2009; Costa et al., 2021; Wannigama et al., 2019; Travnickova et al., 2019) was used to evaluate bacterial cell viability. Resazurin (7-hydroxy-10-oxidophenoxazin-10-ium-3-one, sodium) is a blue fluorogenic dye used as a redox indicator in cell viability and proliferation assays for bacteria, yeast, or mammalian cells. The resazurin assay protocol is based on the reduction of oxidized non-fluorescent blue resazurin to a red fluorescent dye (resorufin), where NADPH dehydrogenase, without being bound by theory, is probably responsible for the transference of electrons from NADPH+H^+ to resazurin (Costa et al., 2021). The amount of resorufin produced is directly proportional to the number of living cells. This simple fluorometric-based assay rapidly quantifies metabolically active bacterial cells. Two controls were added to the plate to confirm the correct response from the resazurin. The positive control used evaluated media alone without bacterial culture to confirm there was no change from blue to red. The negative control evaluated the bacteria culture alone without added compound to provide a 100% growth control (red). Thus, resazurin sodium salt (Sigma R7017) was added to pleuromutilin or pleuromutilin-TPP+ prodrug treated bacterial samples at a final concentration of 0.02% and incubated for 8 hours at 37° C. Changes in fluorescence were measured on the Biotek Synergy 2 plate reader after an 8-hour incubation at 37° C. using an excitation filter range of 530-570 nm and an emission filter range of 590-620 nm. An increase in fluorescence intensity corresponded to bacterial growth and was quantified by comparison with untreated bacterial control samples. The ratio of (TThreshold (untreated)/TThreshold (prodrug-treated)) (where T=time) was used to quantify the change in bacterial growth. To minimize inter-experimental variations, TThreshold values were corrected by subtracting untreated control cultures to reach minimum detectable fluorescence. At the end of the experiment, wells were visualized for changes in color from blue (inviable bacteria) to red (viable bacteria) and a picture was taken.
# [2] = test system: MRC5 fibroblast cells; experiment: Cel Titer Glo cytotoxicity in MRC5 cells; settings: Homo sapiens
# Experimental: In order to facilitate development of the TPP containing antibiotics, a series of TPP linkers were prepared and tested for their toxicity in MRC5 cells. This library of linkers are shown below: The toxicity of these linkers in MRC5 cells after a 72 hour incubation.
# [3] = test system: Proteus mirabilis; experiment: Antibacterial in vitro activity (MIC)
# Experimental: (§2) These compounds were tested in an E. coli and Klebsiella strain to determine the change in OD600 as a function of concentration (FIG. 5, E. coli; FIG. 6, Klebsiella). The antibacterial activity of the compounds was further analyzed and activity was determine a variety of different bacterial strains.
# [4] = test system: Citrobacter freundii; experiment: Antibacterial in vitro activity (MIC)
# Experimental: as §2
# [5] = test system: Salmonella typhimurium; experiment: Antibacterial in vitro activity (MIC); settings: Salmonella enterica, ATCC 13311 / TYPHIMURIUM; isolate D0109, ATCC13311
# Experimental: as §2
# [6] = test system: Enterobacter cloacae; experiment: Antibacterial in vitro activity (MIC)
# Experimental: as §2
# [7] = test system: Escherichia coli; experiment: Antibacterial in vitro activity (MIC)
# Experimental: as §2
# [8] = test system: Haemophilus influenzae; experiment: Antibacterial in vitro activity (MIC)
# Experimental: as §2
# [9] = test system: Streptococcus pneumoniae; experiment: Antibacterial in vitro activity (MIC)
# Experimental: as §2
# [10] = test system: Pseudomonas aeruginosa; experiment: Antibacterial in vitro activity (MIC)
# Experimental: as §2
# [11] = test system: Staphylococcus aureus; experiment: Antibacterial in vitro activity (MIC)
# Experimental: as §2
# [12] = test system: Klebsiella pneumoniae; experiment: Antibacterial in vitro activity (MIC)
# Experimental: as §2
# [13] = test system: Acinetobacter baumannii; experiment: Antibacterial in vitro activity (MIC)
# Experimental: as §2
# [14] = test system: clinical isolates of Staphylococcus aureus (NR-49120, NR-46413); experiment: Resazurin blue (alamarBlue) bacterial cell viability assay, gram-positive model; settings: clinical strains of Staphylococcus aureus
# Experimental: as §1
# A resazurin blue assay (alamarBlue®) (Toté et al., 2009; Costa et al., 2021; Wannigama et al., 2019; Travnickova et al., 2019) was used to evaluate bacterial cell viability. Resazurin (7-hydroxy-10-oxidophenoxazin-10-ium-3-one, sodium) is a blue fluorogenic dye used as a redox indicator in cell viability and proliferation assays for bacteria, yeast, or mammalian cells. […] This simple fluorometric-based assay rapidly quantifies metabolically active bacterial cells. […] The positive control used evaluated media alone without bacterial culture to confirm there was no change from blue to red. The negative control evaluated the bacteria culture alone without added compound to provide a 100% growth control (red). […] Changes in fluorescence were measured on the Biotek Synergy 2 plate reader after an 8-hour incubation at 37° C. using an excitation filter range of 530-570 nm and an emission filter range of 590-620 nm. An increase in fluorescence intensity corresponded to bacterial growth and was quantified by comparison with untreated bacterial control samples. The ratio of (TThreshold (untreated)/TThreshold (prodrug-treated)) (where T=time) was used to quantify the change in bacterial growth. To minimize inter-experimental variations, TThreshold values were corrected by subtracting untreated control cultures to reach minimum detectable fluorescence. […]
# [15] = test system: Enterococcus faecium; experiment: Antibacterial in vitro activity (MIC); settings: isolate D0459, Clinical isolate
# Experimental: as §2
# [16] = test system: Streptococcus pyogenes; experiment: Antibacterial in vitro activity (MIC); settings: isolate B0780, Clinical isolate
# Experimental: as §2
# [17] = test system: Streptococcus agalactiae; experiment: Antibacterial in vitro activity (MIC); settings: isolate B0790, Clinical isolate
# Experimental: as §2
# [18] = Table 2, cytotoxicity in MRC5 fibroblast cells
# [19] = Proteus mirabilis, isolate D1301, Clinical isolate, read-out: MIC
# [20] = isolate D1300, Clinical isolate
# [21] = isolate B0271, Clinical isolate
# [22] = isolate D1089, Clinical isolate
# [23] = isolate D1090, Clinical isolate
# [24] = ATCC25922, isolate B0001, ATCC 25922, read-out: MIC
# [25] = isolate B0159, Efflux pump deficient (ΔtolC)
# [26] = isolate B0429, Efflux pump deficient (ΔacrAB)
# [27] = isolate B1098, Clinical isolate, read-out: MIC
# [28] = isolate D0120, Clinical isolate, read-out: MIC
# [29] = ATCC49247, isolate B0035, ATCC 49247
# [30] = isolate B0126, Clinical isolate
# [31] = isolate B0078, Clinical isolate
# [32] = isolate B0415, Clinical isolate
# [33] = ATCC27853, isolate B0015, ATCC 27853
# [34] = ATCC29511, isolate B0016, ATCC 29511
# [35] = isolate B0367, Clinical isolate
# [36] = ATCC49951, isolate B0009, ATCC 49951
# [37] = isolate B0029, Clinical isolate
# [38] = ATCC11228, isolate B0032, ATCC 11228
# [39] = ATCC29519, isolate D0033, ATCC 29519
# [40] = ATCC43816, isolate B0305, ATCC 43816
# [41] = ATCC15473, isolate B0473, ATCC 15473
# [42] = isolate B1062, Clinical isolate
# [43] = Table 1, TPP+ linkers, MRC5 cells, 72-hour incubation
smiles,measurement,setting,value
C=C[C@]1(C)C[C@@H](OC(=O)CO)[C@]2(C)[C@H](C)CC[C@]3(CCC(=O)[C@H]32)[C@@H](C)[C@@H]1O [Pleuromutilin],cytotoxicity potency,[1]; E Coli BL21 (DE3),25 µg/mL
same,cytotoxic effect,[1],much less cytotoxic
same,IC50,[2]; [18],> 90 µM
same,MIC,[3]; [19],> 128 µg/mL
same,MIC,[3]; [20],>128 µg/mL
same,MIC,[4]; [21],> 128 µg/mL
same,MIC,"[4]; isolate B0286, AKH Vienna",> 128 µg/mL
same,MIC,[5],128 µg/mL
same,MIC,[6]; [22],> 128 µg/mL
same,MIC,[6]; [23],> 128 µg/mL
same,MIC,[7]; [24],128 µg/mL
same,MIC,"[7]; isolate B0158, AcrAB-TolC efflux pump WT, read-out: MIC",> 128 µg/mL
same,MIC,[7]; [25],0.5 µg/mL
same,MIC,[7]; [26],32 µg/mL
same,MIC,[7]; [27],> 128 µg/mL
same,MIC,[7]; [28],> 128 µg/mL
same,MIC,[8]; [29],4 µg/mL
same,MIC,[8]; [30],1 µg/mL
same,MIC,[9]; [31],4 µg/mL
same,MIC,[9]; [32],1 µg/mL
same,MIC,[10]; [33],> 128 µg/mL
same,MIC,[10]; [34],> 128 µg/mL
same,MIC,[10]; [35],> 128 µg/mL
same,MIC,[11]; [36],1 µg/mL
same,MIC,[11]; [37],1 µg/mL
same,MIC,[12]; [38],> 128 µg/mL
same,MIC,[12]; [39],> 128 µg/mL
same,MIC,[12]; [40],> 128 µg/mL
same,MIC,[13]; [41],> 128 µg/mL
same,MIC,[13]; [42],> 128 µg/mL
same,cytotoxic effect,[14],potent cytotoxic agents
OCCC[P+](c1ccccc1)(c1ccccc1)c1ccccc1 [AP-7-242],IC50,[2]; [43],> 90 µM
CC(C)(O)C[P+](c1ccccc1)(c1ccccc1)c1ccccc1 [AP-7-253],IC50,[2]; [43],> 90 µM
"O=C(O)c1ccc(C[P+](c2ccccc2)(c2ccccc2)c2ccccc2)cc1 [AP-8-108, (4-Carboxybenzyl)triphenylphosphonium bromide]",cytotoxic effect,[1],no cytotoxic effect
same,IC50,[2]; [43],> 90 µM
same,IC50,[2]; [18],> 90 µM
same,MIC,[7]; [24],> 32 µg/mL
same,MIC,[7]; [25],> 32 µg/mL
same,MIC,[7]; [26],> 32 µg/mL
same,MIC,[7]; [27],> 32 µg/mL
same,MIC,[7]; [28],> 32 µg/mL
same,cytotoxic effect,[14],no cytotoxic effect
Fc1cc(C[P+](c2ccccc2)(c2ccccc2)c2ccccc2)ccc1Cl [BI-182],IC50,[2]; [43],> 90 µM
C[C@H]1c2cccc(O)c2C(=O)C2=C(O)[C@]3(O)C(=O)C(C(N)=O)=C(O)[C@@H](N(C)C)[C@@H]3[C@@H](O)[C@@H]21 [Doxycycline],MIC,[3]; [19],32 µg/mL
same,MIC,[3]; [20],32 µg/mL
same,MIC,[4]; [21],8 µg/mL
same,MIC,"[4]; isolate B0286, AKH Vienna",2 µg/mL
same,MIC,[5],0.5 µg/mL
same,MIC,[6]; [22],> 32 µg/mL
same,MIC,[6]; [23],2 µg/mL
same,MIC,[7]; [24],0.5 µg/mL
same,MIC,[7]; [25],0.25 µg/mL
same,MIC,[7]; [26],0.25 µg/mL
same,MIC,[7]; [27],16 µg/mL
same,MIC,[7]; [28],2 µg/mL
same,MIC,[8]; [29],0.12 µg/mL
same,MIC,[8]; [30],0.12 µg/mL
same,MIC,[15],32 µg/mL
same,MIC,[16],16 µg/mL
same,MIC,[9]; [31],16 µg/mL
same,MIC,[9]; [32],0.12 µg/mL
same,MIC,[10]; [33],16 µg/mL
same,MIC,[10]; [34],32 µg/mL
same,MIC,[10]; [35],> 32 µg/mL
same,MIC,[17],0.12 µg/mL
same,MIC,[11]; [36],0.12 µg/mL
same,MIC,[11]; [37],8 µg/mL
same,MIC,"[11]; isolate B1325, Clinical isolates",4 µg/mL
same,MIC,[12]; [38],0.25 µg/mL
same,MIC,[12]; [39],1 µg/mL
same,MIC,[12]; [40],1 µg/mL
same,MIC,[13]; [41],0.5 µg/mL
same,MIC,[13]; [42],≤ 0.03 µg/mL
OCc1ccc([P+](c2ccccc2)(c2ccccc2)c2ccccc2)cc1 [AP-8-98],IC50,[2]; [43],57.6 µM
Oc1ccc(C[P+](c2ccccc2)(c2ccccc2)c2ccccc2)cc1 [AP-8-109],IC50,[2]; [43],60.6 µM
